Earlier results, collected in patent US20060122127A1, “Methods for reducing the side effects associated with mirtzapine treatment” (Cypress Bioscience, Inc., priority 2004, published 2006).

How the values were obtained:
[1] = system: tonic extension seizures induced by maximal electroshock; conditions: animals
[2] = obese patients
[3] = system: clonic seizures induced by subcutaneous pentylenetetrazol; conditions: animals
[4] = 100-200 mg/d, patients with neuropathic pain

Row | patients with weight gain of greater than or equal to 7% of body weight (controlled studies (placebo 0%)) [%] | patients reporting appetite increase (controlled studies (placebo 2%)) [%] | SMILES | anticonvulsant activity against tonic extension seizures [1] | loss of body weight ([2]; 32 week extension phase (placebo 1.8% loss)) [%] | reduction of body weight ([2]; following 16 weeks of therapy (placebo 1% loss)) [%] | anticonvulsant activity against clonic seizures [3] | patients whose subjective ratings of pain improved by at least 50% [4] [%]
1 |  |  | NS(=O)(=O)Cc1noc2ccccc12 [zonisamide, 1,2-benzisoxazole-3-methanesulfonamide] | effective | 9.4 | 6 | ineffective | 59
2 | 5.9 | 6 | CN(C)CCC=C1c2ccccc2CCc2ccccc21 [amitriptyline] |  |  |  |  | 
